Source: US20220257557A1, “PHARMACEUTICAL COMPOSITION FOR PREVENTING OR TREATING NEUROLOGICAL DISEASES” (GLACEUM INC., priority 2019, published 2022)

Key:
[1] = test system: SH-SY5Y cells; assay: Mitochondrial reactive oxygen species (MitoSOX Red) after MPP+; type: cell-based, Human; conditions: 1 mM MPP+ 24 h, then 0.0001-1 μM compound 24 h, FIG. 5
Description: (§1) Human neuronal SH-SY5Y cells were cultured in a 1:1 DMEM/F12 medium containing 10% FBS (fetal bovine serum) at 37° C. under 5% carbon dioxide and 95% air. The cultured cells were transferred to a 96-well cell culture plate at a density of 2*10^4 cells/well and cultured for 24 hours. Thereafter, after replacement with serum-restricted medium (1:1 DMEM/F12 medium containing 0.5% FBS), the cells were cultured for 16 hours. Then, the cultured cells were treated with 1 mM MPP+ (1-methyl-4-phenylpyridinium) and cultured for 24 hours, thus inducing mitochondrial dysfunction in the cells. […]
The level of reactive oxygen species generated in mitochondria was measured using a reduced fluorescent material called MitoSOX™ Red reagent.
Specifically, the culture obtained in Experimental Example 3-1 was treated with 50 μg of MitoSOX Red dissolved in 13 μl DMSO and was incubated at 37° C. for 1 hour. […] Then, the fluorescence intensity at an excitation wavelength of 510 nm and an emission wavelength of 595 nm was measured with a fluorescence analyzer to determine the level of reactive oxygen species generated in the mitochondria. […]
The concentration of MitoSOX Red determined from the fluorescence intensity was expressed as a percentage of the normal control.

[2] = test system: SH-SY5Y cells; assay: Intracellular ATP production after MPP+ mitochondrial damage; type: cell-based, Human; conditions: 1 mM MPP+ 24 h, then 0.0001-1 μM compound 24 h, FIG. 3
Description: as §1
100 μl of the cell lysate of the culture obtained in Experimental Example 3-1 was mixed with 100 μl of luciferin-luciferase reaction buffer using an ATP bioluminescent somatic cell assay kit (Sigma-Aldrich), and the mixture was allowed to react at 20° C. for 10 minutes. Thereafter, the supernatant was obtained and the fluorescence intensity thereof was measured with an LB 9501 Lumat-Luminometer to confirm recovery from the decrease in intracellular ATP production caused by mitochondrial damage.
The fluorescence intensities of controls were measured in the same manner as the above-described method, except for using a sample to which DMSO was added (normal control) instead of MMP+ and the compound of Formula III-1 and a sample to which the compound of Formula III-1 was not added (negative control). […]

[3] = test system: RAW264.7 cells; assay: Transcription of NF-κB protein (p65, p50) into nucleus after LPS (Western blot); type: cell-based; conditions: 3 h pretreatment (Table 3 amounts), LPS 1 μg/ml 1 h
How it was run: (§2)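 Cells (5×10^5/well) cultured in DMEM with 10% FBS at 37° C, 5% CO2, pretreated with compound, then stimulated with 1 μg/ml LPS for 1 hour. Nuclear levels of p65 and p50 measured by Western blot.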

[4] = test system: BV2 cells; assay: as above; type: cell-based; conditions: 3 h pretreatment (Table 3 amounts), LPS 1 μg/ml 1 h
How it was run: as §2

CCOc1ccc(C2COc3c(ccc4c3CCC(C)(C)O4)C2)c(O)c1 (stereo not drawn) [Formula III-1, 2-(8,8-dimethyl-2,3,4,8,9,10-hexahydropyrano[2,3-f]chromen-3-yl)-5-ethoxyphenol]
level of reactive oxygen species generated in the mitochondria (Mito-SOX) [1]: decreased | decrease in ATP production caused by mitochondrial damage due to MPP+ [2]: recovery | level of transcription of NF-κB protein into the nucleus, p50 [3]: concentration-dependently decreased | level of transcription of NF-κB protein into the nucleus, p65 [3]: concentration-dependently decreased | level of transcription of NF-κB protein into the nucleus, p50 [4]: concentration-dependently decreased | level of transcription of NF-κB protein into the nucleus, p65 [4]: concentration-dependently decreased
